Among the data in patent US20050124664A1, “Urea thiadiazole inhibitors of plasminogen activator inhibior-1” (priority 2003, published 2005) are melting point values, retold here.

The structures appear in SMILES notation.

As for `COC(=O)c1cccc(NC(=O)Nc2nnc(-c3cc(Cl)cc(Cl)c3O)s2)c1` [Example 3, 3-{3-[5-(3,5-Dichloro-2-hydroxy-phenyl)-[1,3,4]thiadiazol-2-yl]-ureido}-benzoic Acid Methyl Ester], the melting point is 305 °C.

As for `COC(=O)c1ccc(NC(=O)Nc2nnc(-c3cc(Cl)cc(Cl)c3O)s2)cc1` [Example 4, 4-{3-[5-(3,5-Dichloro-2-hydroxy-phenyl)-[1,3,4]thiadiazol-2-yl]-ureido}-benzoic Acid Methyl Ester], the melting point was 330 °C.
